In brackets after ≈: the same amount, converted by molar mass. Where two headings read alike, the source gives them in different places.
Key:
[1] = molecular target: single-chain tethered dimer of HIV protease (Human immunodeficiency virus 1, UniProt P04585); experiment: biochemical; assay type: biochemical; set-up: fused on or other part: A second copy of the same protease unit is joined to the first by a short peptide tether, giving one polypeptide
HIV-1 (RF) in MT-2 cells = experiment: microbe, parasite or virus in culture; assay type: cell-based
Summary of the method: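 Read-out: gag and pol viral RNA captured by 5′-biotinylated oligonucleotides on streptavidin-coated wells, detected with alkaline phosphatase-linked reporter oligonucleotides, calibrated against BH10 in vitro transcripts. Virus stocks (RF, MN, IIIB) come from H9 cultures; MT-2 host cells kept in RPMI 1640, 5% FCS.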

[2] = read-out: HPLC K1, Table 2d, HIV protease inhibition, HPLC method
[3] = Human immunodeficiency virus 1, MT2, 48 h, Table 2d, HIV RNA assay, read-out: IC90
[4] = read-out: HPLC K1, Table 2d, class symbols
[5] = Human immunodeficiency virus 1, MT2, 48 h, Table 2d, class symbols, read-out: IC90
[6] = Table 2d, HIV protease inhibition, HPLC method, read-out: HPLC K1

NC(=O)Cc1cccc(CN2C(=O)N(Cc3cccc(CC(N)=O)c3)C(Cc3ccccc3)C(O)C(O)C2Cc2ccccc2)c1 (stereo not drawn) [15DV]
Ki [1, 2]: < 10 nM
IC90 (HIV-1 (RF) in MT-2 cells; [3]): < 10 µg/mL

O=C1N(Cc2cccc(CNO)c2)C(Cc2ccccc2)C(O)C(O)C(Cc2ccccc2)N1Cc1cccc(CNO)c1 (stereo not drawn) [Example 9B]
Ki [1, 4]: 10 to 1000 nM
IC90 (HIV-1 (RF) in MT-2 cells; [5]): < 10 µg/mL

CC(O)c1cccc(CN2C(=O)N(Cc3cccc(C(C)O)c3)C(Cc3ccccc3)C(O)C(O)C2Cc2ccccc2)c1 (stereo not drawn) [15XD]
Ki [1, 2]: < 10 nM
IC90 (HIV-1 (RF) in MT-2 cells; [3]): < 10 µg/mL

O=C(O)CCCCCN1C(=O)N(CCCCCC(=O)O)C(Cc2ccccc2)C(O)C(O)C1Cc1ccccc1 (stereo not drawn) [Example 12G]
Ki [1, 4]: < 10 nM
IC90 (HIV-1 (RF) in MT-2 cells; [5]): < 10 µg/mL

O=C1NC(Cc2ccccc2)C(O)C(O)C(Cc2ccccc2)N1Cc1cccc(-c2cc[nH]n2)c1 (stereo not drawn) [Example 15BX]
Ki [1, 2]: < 10 nM
IC90 (HIV-1 (RF) in MT-2 cells; [3]): < 10 µg/mL

Cl.NCC(=O)Nc1cccc(CN2C(=O)N(Cc3ccc(CO)cc3)C(Cc3ccccc3)C(O)C(O)C2Cc2ccccc2)c1 (stereo not drawn) [15XT]
Ki [1, 6]: < 10 nM
IC90 (HIV-1 (RF) in MT-2 cells; Table 2d, HIV RNA assay): +++ (+++=<10 μg/mL)

O=C1N(CCCCCCO)C(Cc2ccccc2)C(O)C(O)C(Cc2ccccc2)N1CC1CC1 (stereo not drawn) [Example 12E]
Ki [1, 4]: < 10 nM
IC90 (HIV-1 (RF) in MT-2 cells; [5]): < 10 µg/mL

O=C1NC(Cc2ccccc2)C(O)C(O)C(Cc2ccccc2)N1CCOCCO (stereo not drawn) [Example 12T]
Ki [1, 4]: 10 to 1000 nM
IC90 (HIV-1 (RF) in MT-2 cells; [5]): > 100 µg/mL

CC(=O)c1cccc(CN2C(=O)N(Cc3cccc(C(C)=O)c3)C(Cc3ccc(F)cc3)C(O)C(O)C2Cc2ccc(F)cc2)c1 (stereo not drawn) [20N]
Ki ([1]; Table 2i, read-out: HPLC Ki): < 10 nM
IC90 (HIV-1 (RF) in MT-2 cells; Table 2i): +++ (+++=<10 μg/mL)

O=C(NCc1ccccn1)c1cccc(CN2C(=O)N(Cc3cccc(-c4cc[nH]n4)c3)C(Cc3ccccc3)C(O)C(O)C2Cc2ccccc2)c1 (stereo not drawn) [15CB]
Ki [1, 6]: < 10 nM
IC90 (HIV-1 (RF) in MT-2 cells; Table 2d, HIV RNA assay): +++ (+++=<10 μg/mL)

CN(C)P1(=O)N(CC2CC2)[C@H](Cc2ccccc2)[C@H](O)[C@@H](O)[C@@H](Cc2ccccc2)N1CC1CC1 (stereo partly drawn) [28G]
Ki ([1]; Table 2r, read-out: Ki HPLC): > 1000 nM
IC90 (HIV-1 (RF) in MT-2 cells; Table 2r): ++ (++=10 to 100 μg/mL)

O=C1N(CCCCCNC(=S)Nc2ccccc2)C(Cc2ccccc2)C(O)C(O)C(Cc2ccccc2)N1CCCCCNC(=S)Nc1ccccc1 (stereo not drawn) [15EW]
Ki [1, 6]: 10 to 1000 nM
IC90 (HIV-1 (RF) in MT-2 cells; Table 2d, HIV RNA assay): ++/+ (The ++/+ is used in the cases where an IC90 was determined to be >50 μg/mL)

O=C(O)c1ccc(CN2C(=O)N(Cc3ccc(CO)cc3)C(Cc3ccccc3)C(O)C(O)C2Cc2ccccc2)cc1 (stereo not drawn) [15XA]
Ki [1, 2]: < 10 nM
IC90 (HIV-1 (RF) in MT-2 cells; [3]): 10 to 100 µg/mL (≈ 17.2 to 172 µM)

O=S1(=O)NC(Cc2ccccc2)C(O)C(O)C(Cc2ccccc2)N1CCCCCO (stereo not drawn) [23AE]
Ki ([1]; Table 2m, read-out: HPLC Ki): 10 to 1000 nM
IC90 (HIV-1 (RF) in MT-2 cells; Table 2m): ++/+ (The ++/+ is used in the cases where an IC90 was determined to be >50 μg/mL)

CNC(=O)c1cccc(CN2C(=O)N(Cc3cccc(C(=O)NC)c3)C(Cc3ccccc3)C(O)C(O)C2Cc2ccccc2)c1 (stereo not drawn) [11H]
Ki [1, 4]: < 10 nM
IC90 (HIV-1 (RF) in MT-2 cells; [5]): < 10 µg/mL

O=C1N(Cc2ccc(OCc3ccccc3)cc2)C(Cc2ccccc2)C(O)C(O)C(Cc2ccccc2)N1Cc1cccc(-c2cc[nH]n2)c1 (stereo not drawn) [Example 15BY]
Ki [1, 2]: < 10 nM
IC90 (HIV-1 (RF) in MT-2 cells; [3]): < 10 µg/mL

O=C1N(Cc2cccc(C(O)CO)c2)C(Cc2ccccc2)C(O)C(O)C(Cc2ccccc2)N1Cc1cccc(C(O)CO)c1 (stereo not drawn) [11K]
Ki [1, 4]: < 10 nM
IC90 (HIV-1 (RF) in MT-2 cells; [5]): < 10 µg/mL

NC(=O)c1cc(CN2C(=O)N(Cc3ccc(F)c(C(N)=NO)c3)C(Cc3ccccc3)C(O)C(O)C2Cc2ccccc2)ccc1F (stereo not drawn) [15EH]
Ki [1, 6]: < 10 nM
IC90 (HIV-1 (RF) in MT-2 cells; Table 2d, HIV RNA assay): +++ (+++=<10 μg/mL)

[N-]=[N+]=NCCCCCN1C(=O)N(CCCCCN=[N+]=[N-])C(Cc2ccccc2)C(O)C(O)C1Cc1ccccc1 (stereo not drawn) [15EM]
Ki [1, 2]: 10 to 1000 nM
IC90 (HIV-1 (RF) in MT-2 cells; [3]): < 10 µg/mL

O=C1N(Cc2ccc3ccccc3c2)C(Cc2ccccc2)C(O)C(O)C(Cc2ccccc2)N1Cc1ccc2[nH]nnc2c1 (stereo not drawn) [15DO]
Ki [1, 6]: < 10 nM
IC90 (HIV-1 (RF) in MT-2 cells; Table 2d, HIV RNA assay): +++ (+++=<10 μg/mL)

O=C1N(CC2CC2)C(C(F)Cc2ccccc2)C[C@@H](Cc2ccccc2)N1CC1CC1 (stereo partly drawn) [Example 8N]
Ki ([1]; read-out: Ki (HPLC), Table 1e, cells marked (HPLC)): > 1000 nM
IC90 (HIV-1 (RF) in MT-2 cells; Human immunodeficiency virus 1, MT2, Table 1e, read-out: IC90): < 10 µg/mL

O=C(NCCCCCN1C(=O)N(CCCCCNC(=O)c2ccccc2)C(Cc2ccccc2)C(O)C(O)C1Cc1ccccc1)c1ccccc1 (stereo not drawn) [15EX]
Ki [1, 6]: 10 to 1000 nM
IC90 (HIV-1 (RF) in MT-2 cells; Table 2d, HIV RNA assay): ++/+ (The ++/+ is used in the cases where an IC90 was determined to be >50 μg/mL)

Cl.Cl.O=C(NCCCCCN1C(=O)N(CCCCCNC(=O)c2ccncc2)C(Cc2ccccc2)C(O)C(O)C1Cc1ccccc1)c1ccncc1 (stereo not drawn) [15FA]
Ki ([1]; HIV protease inhibition, HPLC method, Table 2d, read-out: HPLC K1): 10 to 1000 nM
IC90 (HIV-1 (RF) in MT-2 cells; HIV RNA assay, HIV-1 infected MT-2 cells, Table 2d): +++ (+++=<10 μg/mL)

CCOP1(=O)N[C@H](Cc2ccccc2)[C@H](O)[C@@H](O)[C@@H](Cc2ccccc2)N1 (stereo partly drawn) [28F]
Ki ([1]; Table 2r, read-out: Ki HPLC): > 1000 nM
IC90 (HIV-1 (RF) in MT-2 cells; Table 2r): ++/+ (The ++/+ is used in the cases where an IC90 was determined to be >50 μg/mL)

— USRE37781E1, “Substituted cyclic carbonyls and derivatives thereof useful as retroviral protease inhibitors” (DuPont Pharmaceuticals Company, priority 1991, dated 2002)
